The values below come from US8569580B2, “Transformed plants or algae with highly expressed chloroplast protein BPG2” (Riken, priority 2010, dated 2013).

Data set [1] concerns wild-type Arabidopsis. In words: RT-PCR analysis of gene expression in dark-grown plants with Brz. The conditions noted are these: wild type grown in the dark 7 days with Brz 0.1, 1, 3 μM. In kind it is in vivo, Arabidopsis thaliana. The text has this: FIG. 6. Inducible expression of BPG2 by light and Brz. (a) RT-PCR analysis of BPG2 gene expression in different organs: root (R), stem (S), rosette leaf blade (LB), rosette leaf petiole (LP), cauline leaves (CL), and flowers (F) of wild-type Arabidopsis. ACT2 served as an internal control. (b) RT-PCR analysis of expression of BPG2, CAB, and rbcS after exposure to light. Total RNAs were extracted from the wild type germinated in the dark for 7 days and exposed to light for 0 (lane 1, 0), 0.5 (lane 2, 0.5), 1 (lane 3, 1), 2 (lane 4, 2), or 4 h (lane 5, 4), and from 7-day-old wild type under long-day conditions (16 h light and 8 h dark; lane 6, L). (c) RT-PCR analysis of expression of BPG2, CAB, rbcS, and DWF4 on Brz. Total RNAs were extracted from wild type germinated in the dark for 7 days with Brz.
Total RNA was extracted from wild type and bpg2 mutants with the RNeasy Plant mini kit (Qiagen). First strand cDNA was synthesized with Super Script III first-strand cDNA synthesis for RT (Invitrogen) and used as template. RT-PCR was performed with Ex Taq (Takara Bio). […]

For data set [2], the target named is cytochrome P450 steroid C-22 hydroxylase encoded by the DWF4 gene (Arabidopsis thaliana, UniProt O64989). The conditions noted are these: Asami et al., 2000, 2001; cited from earlier work.
Data set [3] relates to Arabidopsis bpg2-1. Kind of data set: Hypocotyl phenotype when grown with Brz in the dark. It counts as in vivo, Arabidopsis thaliana. To be noted: bpg2-1 grown with Brz in the dark (data not shown).
For data set [4], the system named is Arabidopsis thaliana seedlings. In words: Measurement of chlorophyll a and b in seedlings. It counts as in vivo. To be noted: 4 days, long days. How it is done:
Arabidopsis thaliana Columbia-0 (Col-0) was used as the wild type. For cotyledon analysis, plants were germinated and grown on ½ MS medium (Duchefa) containing 1.5% sucrose and 0.9% phytoagar (Duchefa), with or without Brz. Germinated plants were transferred to soil. Conditions in the growth chamber were 16 h light (100 μE m^−2 sec^−1 white light)/8 h dark at 22° C. […] Plants were homogenized in 80% (v/v) acetone. The chlorophyll content of the centrifuged supernatants was determined at 645 nm and 663 nm. Chlorophyll a and b content were determined according to Arnon (1949): Chlorophyll a (μg/mg fresh weight)=(12.7A663−[…])/mg fresh weight Chlorophyll b (μg/mg fresh weight)=(22.9A645−4.67A663)/mg fresh weight

For data set [5], the system named is Arabidopsis bpg2 mutants and wild type. In words: Northern blot analysis of photosynthesis gene expression. It counts as in vivo, Arabidopsis thaliana. To be noted: bpg2 mutants versus wild type, dark grown 5-day seedlings, 1 μM Brz. How it is done:
FIG. 7. Chloroplast gene expression in bpg2 mutants. Total RNA was extracted from light grown 4-day-old seedlings (a), 3-week-old rosette leaves (b) and dark grown 5-day-seedling (c) of wild type (WT), bpg2-1, and bpg2-2. Northern blot analysis was carried out using probes for psbA and rbcL, encoded in the chloroplast, and rbcS, CAB, and 18S rRNA, encoded in the nucleus. (c) Seedlings were germinated with 0 or 1 μM Brz in the dark.
Total RNA was extracted from light grown 4-day-old seedlings, 3-week-old rosette leaves and dark grown 5-day-old seedlings of wild type, bpg2-1 and bpg2-2 with the RNeasy Plant Mini kit (Qiagen). Total RNA (3 μg) was separated in 1.2% agarose/0.66 M formaldehyde gels and blotted on Hybond N^+ (Amersham). After transfer, the ECL Direct Nucleic Acid Labeling and Detection system (GE Healthcare) was used for hybridization, and LAS-4000 mini (Fuji Film) was used for analysis of chemical fluorescence.

Data set [6] deals with Arabidopsis thaliana seedlings. In words: Immunoblot analysis of chloroplast proteins. In kind it is in vivo. The conditions noted are these: 1 μM Brz. How it is done: of wild type, bpg2-1, and bpg2-2 were ground in liquid nitrogen and extracted by boiling with two volumes/fresh weight of 1× Laemmli buffer [50 mM Tris-HCl (pH 6.8), 100 mM DTT, 2% (w/v) SDS, 0.1% (w/v) bromophenol blue, and 10% (w/v) glycerol] for immunoblot analysis of Rubisco LSU, SSU, and LHCP. Total proteins for immunoblot analysis of D1 protein were prepared as described (Nakajima et al., 1996). Proteins were separated by SDS-PAGE (12.5% acrylamide separating gel). After electrophoresis, the proteins were stained with Coomassie Brilliant Blue or electrophoretically transferred to Hybond ECL nitrocellulose membrane (Amersham). After blocking overnight in TBS (20 mM Tris, 0.137 M NaCl, pH7.4, 0.05% polyoxyethlene sorbital monolaurate) buffer containing 5% non-fat milk (Morinagamilk) at room temperature, the membrane was incubated in TBS buffer containing non-fat milk with polyclonal antibody for 1 h at room temperature. After washing in TBS buffer, the blots were incubated with horseradish peroxidase-conjugated secondary antibody (Promega for Rubisco L/S and LHCP, and Cosmo Bio for D1) for 1 h at room temperature, and the complexes were made visible with ECL Immoblin Western (Millipore). The polyclonal antibody against the tobacco Rubisco L/S complex was provided by F. Sato of Kyoto University. The polyclonal antibody against D1 and LHCP protein was obtained from Agrisera. LAS-4000 mini (Fuji Film) was used for detection.
To analyze BPG2 function with BR on chloroplast protein accumulation, we performed immunoblot analysis seedlings of wild type and bpg2 mutants in the light with and without Brz (FIG. 10). In wild type, Rubisco LSU protein from Brz-treated seedlings increased about 1.4-fold and D1 protein increased about 1.3-fold compared to that of no-Brz seedlings (FIG. 10a, b). […] The effect of BPG2 deficiency on LHCP protein was much smaller than on D1 and Rubisco LSU.
In general terms: Immunoblotting shows a protein as a band on a membrane.

Where [7] appears, read: wild type, germinated in the light for 3 days.

Chain of cytochrome P450 steroid C-22 hydroxylase encoded by the DWF4 gene (O64989 whole entry): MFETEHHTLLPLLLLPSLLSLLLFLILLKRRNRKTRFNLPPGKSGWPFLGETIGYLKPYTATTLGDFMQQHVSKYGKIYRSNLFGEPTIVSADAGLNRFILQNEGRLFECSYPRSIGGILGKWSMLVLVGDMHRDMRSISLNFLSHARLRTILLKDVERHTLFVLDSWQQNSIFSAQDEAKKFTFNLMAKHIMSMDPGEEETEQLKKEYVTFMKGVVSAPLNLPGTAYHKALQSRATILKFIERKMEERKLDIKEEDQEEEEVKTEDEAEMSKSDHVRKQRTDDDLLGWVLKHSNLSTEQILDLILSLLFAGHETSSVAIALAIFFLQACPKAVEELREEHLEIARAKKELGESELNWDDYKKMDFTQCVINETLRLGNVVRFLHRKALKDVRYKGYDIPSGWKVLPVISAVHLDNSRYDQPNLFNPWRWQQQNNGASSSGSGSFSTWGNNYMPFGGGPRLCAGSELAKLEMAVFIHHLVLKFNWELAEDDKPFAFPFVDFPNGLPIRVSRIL

For `CC(O)(c1ccccc1)C(Cc1ccc(Cl)cc1)n1cncn1` (centres unmarked) [Brz, brassinazole], in data set [1], the BPG2 gene expression result is “actually increased”; the “expression of CAB and rbcS” value was “increased”. Moreover, the “binding to cytochrome P450 steroid C-22 hydroxylase (DWF4)” value in data set [2] was “binds directly”. Besides, the hypocotyl phenotype result in data set [3] is given as “same short hypocotyl as the wild type plants”. Besides, the “chlorophyll levels following Brz treatment” value in data set [4] (bpg2:35S-BPG2 transformants, Brz 1 μM) is given as “increase in chlorophyll levels”. In data set [4] (wild-type seedlings, Brz 0.1 and 1 μM, light), the “endogenous chlorophyll a and b levels” value is reported as “increased”. Besides, the “expression of psbA, rbcL, CAB and rbcS” value in data set [5] is listed as “to the same degree in bpg2 mutants as in wild type”. Besides, in data set [6] (bpg2 mutants, light 3 days), the “D1 protein of Brz-treated seedlings” value is “the same as in no-Brz seedlings” and the “Rubisco LSU protein of Brz-treated seedlings” value is reported as “the same as in no-Brz seedlings”. Moreover, the “induction of Rubisco LSU protein and D1 protein by Brz” value in data set [6] (clpB3 and clpC1 mutants, light 3 days) was “no induction”. Besides, in data set [6] (setting [7]), the “D1 protein, Brz-treated compared to no-Brz seedlings” value is recorded as “about 1.3 fold” and the “Rubisco LSU protein, Brz-treated compared to no-Brz seedlings” value is on record as “about 1.4 fold”. Further, in data set [6] (wild type, light 3 days), the “Rubisco SSU protein” value is on record as “increased” and the “nuclear encoded-LHCP protein” value is “increased”.
